Data from US20040024055A1, “Pharmaceutical composition containing the exract of saururus chinensis baill useful as an anticancer agent and a process for the preparation thereof” (priority 2000, published 2004).
Values after ≈ are worked out from the molar mass of the structure shown.

Experiments:
[1] = Anticancer activity of sauristolactam separated from saururus; conditions: separated from saururus and crystallized
[2] = tested on: cell line treated as in Experimental Example 1; assay: LDH analysis of remaining cell after NO detection; type: cell-based; conditions: 1% Triton treatment
Excerpt: The remaining cell after NO detection was identified as dead by measuring existence rate and necrosis rate through MTT analysis and LDH analysis.

[3] = tested on: SK-Hep-1 liver cancer cell line; assay: MTT analysis, anticancer activity; type: cell-based, human; conditions: 48 hr
Description: (§1) To be specific, SK-Hep-1 cell, which is liver cancer cell line, was added to 96-well microplate (Falcon, USA) with the concentration of 3×10^5 cells/ml by 100 μl per well. Each extracted and separated substance dissolved in DMSO was added to the well by 100 μl for the final concentration to be from 50 μg/ml to 0.0244 μg/ml, with 200 μl of final volume. Each cell was cultured for 48 hr in a culture medium of 37° C. and 5% CO2. After cultivation, 20 μl of phosphate buffer solution containing 5 mg/ml of MTT (3-[4,5-dimethylthiazol-2-yl]-2,5-diphenyltetrazoliumbromide, Sigma Co.) reagent was added to each well, and then cultured for 4 hr. After taking 100 μl of supernant from each culture medium, 100 μl of 0.04N hydrochloric acid-isopropanol was added. After letting alone overnight, absorbance was measured at 560 nm using automatic Eliza detector (Molecular Divices Corp., USA). Anticancer activity of each extracted and separated substance was calculated from the absorbance value by Equation 1 and was expressed in terms of cell.
(§2) Average Existence Rate(%)=(Absorbance of Treated Group)/(Absorbance of Control Group)×100

[4] = tested on: PC-3 prostate cancer cell line; assay: MTT analysis, anticancer activity; type: cell-based, human; conditions: 48 hr
Description: as §1, §2

[5] = tested on: DU-145 prostate cancer cell line; assay: MTT analysis, anticancer activity; type: cell-based, human; conditions: 48 hr
Description: as §1, §2

BT-20 = assay: MTT analysis, anticancer activity; type: cell-based, human; conditions: 48 hr
BT-549 = assay: MTT analysis, anticancer activity; type: cell-based, human; conditions: 10 μg/ml sample
HS-578T = assay: MTT analysis, anticancer activity; type: cell-based, human; conditions: 10 μg/ml sample
MCF-7 = assay: MTT analysis, anticancer activity; type: cell-based, human; conditions: MTT, 48 hr
SK-BR-3 = assay: MTT analysis, anticancer activity; type: cell-based, human; conditions: 48 hr
T-47D = assay: MTT analysis, anticancer activity; type: cell-based, human; conditions: 48 hr
HeLa = assay: MTT analysis, anticancer activity; type: cell-based, human; conditions: 48 hr
ME-180 = assay: MTT analysis, anticancer activity; type: cell-based, human; conditions: 10 μg/ml sample
HT-29 = assay: MTT analysis, anticancer activity; type: cell-based, human; conditions: 10 μg/ml sample
LoVo = assay: MTT analysis, anticancer activity; type: cell-based, human; conditions: 10 μg/ml sample
SK-N-SH = assay: MTT analysis, anticancer activity; type: cell-based, human; conditions: 48 hr
T98G = assay: MTT analysis, anticancer activity; type: cell-based, human; conditions: 48 hr
HS-746T = assay: MTT analysis, anticancer activity; type: cell-based, human; conditions: 10 μg/ml sample
KATO-III = assay: MTT analysis, anticancer activity; type: cell-based, human; conditions: MTT, 48 hr
A431 = assay: MTT analysis, anticancer activity; type: cell-based, human; conditions: 48 hr
Hep-2 = assay: MTT analysis, anticancer activity; type: cell-based, human; conditions: MTT, 48 hr
HT1080 = assay: MTT analysis, anticancer activity; type: cell-based, human; conditions: 48 hr
NCI-H69 = assay: MTT analysis, anticancer activity; type: cell-based, human; conditions: 10 μg/ml sample
SK-MEL-28 = assay: MTT analysis, anticancer activity; type: cell-based, human; conditions: 48 hr
SK-OV-3 = assay: MTT analysis, anticancer activity; type: cell-based, human; conditions: 10 μg/ml sample
HS683 = assay: MTT analysis, anticancer activity; type: cell-based, human; conditions: 48 hr
293 = assay: MTT analysis, cytotoxicity against normal cell line; type: cell-based, human; conditions: 10 μg/ml sample
3T3-L1 = assay: as above; type: cell-based, mouse; conditions: 10 μg/ml sample
CHO = assay: as above; type: cell-based, Chinese hamster; conditions: 10 μg/ml sample
CPAE = assay: as above; type: cell-based, bovine; conditions: 10 μg/ml sample
HS27 = assay: as above; type: cell-based, human; conditions: 10 μg/ml sample
NIH-3T3 = assay: as above; type: cell-based, mouse; conditions: 10 μg/ml sample
Solubility = type: physicochemical
mouse [6] = conditions: intraperitoneal, Rao et al.; cited from earlier work
mouse [7] = conditions: reported by Rao et al.; cited from earlier work

## COc1c(O)cc2c3c(cc4ccccc4c13)N(C)C2=O [sauristolactam]
[1]
  anticancer activity: no anticancer activity was detected

## Triton X-100
[2]
  LDH Analysis (necrosis rate): 100%

## COc1ccc(C(O)C(C)Oc2ccc(C3OC(c4ccc(OC(C)[C@@H](O)c5ccc(OC)c(OC)c5)c(OC)c4)C(C)C3C)cc2OC)cc1OC (single isomer, unassigned) [HNP-98701C, manassantin A]
[3]
  IC50 SK-Hep-1: 0.0560 µg/mL (≈ 0.0764 µM)
[4]
  IC50 PC-3: 0.0446 µg/mL (≈ 0.0609 µM)
[5]
  IC50 DU-145: 0.0263 µg/mL (≈ 0.0359 µM)
BT-20
  IC50 BT-20: 0.0629 µg/mL (≈ 0.0858 µM)
BT-549
  Existence rate class, BT-549 (in IC50 table): * (Existence rate larger than 60% for 10 μg/ml sample)
HS-578T
  Existence rate class, HS-578T (in IC50 table): N.E. (Not effective; existence rate larger than 90% for 10 μg/ml sample)
MCF-7
  IC50 MCF-7: >10 µg/mL
SK-BR-3
  IC50 SK-BR-3: 0.0632 µg/mL (≈ 0.0862 µM)
T-47D
  IC50 T-47D: 0.1249 µg/mL (≈ 0.17 µM)
HeLa
  IC50 HeLa: 0.1838 µg/mL (≈ 0.251 µM)
ME-180
  Existence rate class, ME-180 (in IC50 table): * (Existence rate larger than 60% for 10 μg/ml sample)
HT-29
  Existence rate class, HT-29 (in IC50 table): * (Existence rate larger than 60% for 10 μg/ml sample)
LoVo
  Existence rate class, LoVo (in IC50 table): * (Existence rate larger than 60% for 10 μg/ml sample)
SK-N-SH
  IC50 SK-N-SH: 0.5392 µg/mL (≈ 0.736 µM)
T98G
  IC50 T98G: 0.1014 µg/mL (≈ 0.138 µM)
HS-746T
  Existence rate class, HS-746T (in IC50 table): * (Existence rate larger than 60% for 10 μg/ml sample)
KATO-III
  IC50 KATO-III: 0.7005 µg/mL (≈ 0.956 µM)
A431
  IC50 A431: 0.3860 µg/mL (≈ 0.527 µM)
Hep-2
  IC50 Hep-2: 0.0367 µg/mL (≈ 0.0501 µM)
HT1080
  IC50 HT1080: 0.1753 µg/mL (≈ 0.239 µM)
NCI-H69
  Existence rate class, NCI-H69 (in IC50 table): * (Existence rate larger than 60% for 10 μg/ml sample)
SK-MEL-28
  IC50 SK-MEL-28: 0.0725 µg/mL (≈ 0.0989 µM)
SK-OV-3
  Existence rate class, SK-OV-3 (in IC50 table): N.E. (Not effective; existence rate larger than 90% for 10 μg/ml sample)
HS683
  IC50 HS683: 0.2170 µg/mL (≈ 0.296 µM)
293
  Existence rate class, 293 (in IC50 table): * (Existence rate larger than 60% for 10 μg/ml sample)
3T3-L1
  Existence rate class, 3T3-L1 (in IC50 table): N.E. (Not effective; existence rate larger than 90% for 10 μg/ml sample)
CHO
  Existence rate class, CHO (in IC50 table): * (Existence rate larger than 60% for 10 μg/ml sample)
CPAE
  Existence rate class, CPAE (in IC50 table): * (Existence rate larger than 60% for 10 μg/ml sample)
HS27
  Existence rate class, HS27 (in IC50 table): N.E. (Not effective; existence rate larger than 90% for 10 μg/ml sample)
NIH-3T3
  Existence rate class, NIH-3T3 (in IC50 table): N.E. (Not effective; existence rate larger than 90% for 10 μg/ml sample)
Solubility
  Solubility in methanol, ethanol, ethyl acetate, chloroform and dimethylsulfoxide (DMSO): highly soluble
  Solubility in water, acetone, ether and hexane: insoluble
Mouse [6]
  spontaneous movement 50% reduction concentration (IC50): 0.21 ± 0.02 mg/kg
Mouse [7]
  50% lethal dose (LD50): 5.2 mg/kg
